This is an account of results in ChEMBL document CHEMBL2424637, “Nucleophilic substitution reactions of 1,4-naphthoquinone and biologic properties of novel S-, S,S-, N-, and N,S-substituted 1,4-naphthoquinone derivatives” (2013).

What all share (format): functional
Experiment [1] deals with Yamadazyma tenuis. Briefly: Antifungal activity against Candida tenuis VKM Y-70 at 0.5% after 48 to 72 hrs by agar disk diffusion technique. (In general: In agar diffusion tests the substance spreads into inoculated agar from a disc or well.)
Experiment [2] relates to Staphylococcus aureus. Briefly: Antibacterial activity against Staphylococcus aureus 209-P after 24 to 72 hrs by serial dilution technique.
Experiment [3] concerns Escherichia coli. Briefly: Antibacterial activity against Escherichia coli B-906 after 24 to 72 hrs by serial dilution technique.
Experiment [4] deals with Escherichia coli. Briefly: Antibacterial activity against Escherichia coli B-906 at 0.1% after 24 hrs by agar disk diffusion technique.
In experiment [5] the test system is Staphylococcus aureus. Briefly: Antibacterial activity against Staphylococcus aureus 209-P at 0.5% after 24 hrs by agar disk diffusion technique.
Experiment [6] concerns Mycobacterium. In words: Antibacterial activity against Mycobacterium luteum B-917 at 0.5% after 24 hrs by agar disk diffusion technique.
For experiment [7], the system named is Yamadazyma tenuis. Briefly: Antifungal activity against Candida tenuis VKM Y-70 after 24 to 72 hrs by serial dilution technique.
Experiment [8] deals with Mycobacterium. Briefly: Antibacterial activity against Mycobacterium luteum B-917 at 0.1% after 24 hrs by agar disk diffusion technique.
Experiment [9] relates to Aspergillus niger. Briefly: Antifungal activity against Aspergillus niger F-1119 at 0.5% after 48 to 72 hrs by agar disk diffusion technique.
Experiment [10] relates to Yamadazyma tenuis. Briefly: Antifungal activity against Candida tenuis VKM Y-70 at 0.1% after 48 to 72 hrs by agar disk diffusion technique.
The subject of experiment [11] is Mycobacterium. Briefly: Antibacterial activity against Mycobacterium luteum B-917 after 24 to 72 hrs by serial dilution technique.
For experiment [12], the system named is Escherichia coli. Briefly: Antibacterial activity against Escherichia coli B-906 at 0.5% after 24 hrs by agar disk diffusion technique.
For experiment [13], the system named is Aspergillus niger. Briefly: Antifungal activity against Aspergillus niger F-1119 after 24 to 72 hrs by serial dilution technique.
Experiment [14] has as its system Staphylococcus aureus. In words: Antibacterial activity against Staphylococcus aureus 209-P at 0.1% after 24 hrs by agar disk diffusion technique.
For experiment [15], the system named is Aspergillus niger. Briefly: Antifungal activity against Aspergillus niger F-1119 at 0.1% after 48 to 72 hrs by agar disk diffusion technique.

Converted amounts (≈) assume the structure as drawn. The source made the active and inactive calls. The calls are words filed in the database; no cut-off is given here.

As to `CCOC1=C(N(CC)Cc2ccncc2)C(=O)c2ccccc2C1=O`, the “diameter of the inhibition zone (DIZ)” value worked out at 20 mm with Yamadazyma tenuis [1]; 0 mm in the experiment on Escherichia coli [4]; 0 mm in the experiment on Staphylococcus aureus [5]; 7.4 mm in the experiment on Mycobacterium [6]; 0 mm in the experiment on Mycobacterium [8]; 19 mm in the experiment on Aspergillus niger [9]. The “diameter of the inhibition zone (DIZ)” value in the experiment with Yamadazyma tenuis [10] was 12.4 mm; with Escherichia coli [12], 0 mm; in the experiment with Staphylococcus aureus [14], 0 mm; with Aspergillus niger [15], 8 mm. The MIC – broadly, the lowest concentration found to suppress growth – is 62.5 µg/mL (≈ 186 µM) against Staphylococcus aureus [2], 62.5 µg/mL (≈ 186 µM) against Yamadazyma tenuis [7], 125 µg/mL (≈ 372 µM) against Mycobacterium [11] and 31.2 µg/mL (≈ 92.7 µM) in the experiment with Aspergillus niger [13]. Further, the MIC result in the experiment on Escherichia coli [3] is “inactive”.

As to `CSc1ccc(SC2=C(Sc3ccc(SC)cc3)C(=O)c3ccccc3C2=O)cc1`, the “diameter of the inhibition zone (DIZ)” value came out at 0 mm in the experiment on Yamadazyma tenuis [1]; 0 mm in the experiment with Escherichia coli [4]; 8.7 mm in the experiment with Staphylococcus aureus [5]; 11 mm with Mycobacterium [6]; 8.7 mm with Mycobacterium [8]; 6 mm in the experiment on Aspergillus niger [9]. The “diameter of the inhibition zone (DIZ)” value in the experiment with Yamadazyma tenuis [10], in the experiment with Escherichia coli [12], in the experiment with Staphylococcus aureus [14] and with Aspergillus niger [15] was 0 mm in each case. Besides, the MIC was 250 µg/mL (≈ 536 µM) with Staphylococcus aureus [2], 125 µg/mL (≈ 268 µM) against Mycobacterium [11] and 500 µg/mL (≈ 1070 µM) in the experiment on Aspergillus niger [13]. Besides, the MIC entry with Escherichia coli [3] and with Yamadazyma tenuis [7] was “inactive” in each case.

Regarding `O=C1C(Sc2c(Cl)c(Cl)c(Cl)c(Cl)c2Cl)=C(N2CCOCC2)C(=O)c2ccccc21`, the “diameter of the inhibition zone (DIZ)” value with Yamadazyma tenuis [1], in the experiment on Escherichia coli [4], in the experiment with Staphylococcus aureus [5], with Mycobacterium [6], in the experiment on Mycobacterium [8] and in the experiment with Aspergillus niger [9] was 0 mm each time. Further, the “diameter of the inhibition zone (DIZ)” value in the experiment on Yamadazyma tenuis [10], with Escherichia coli [12], in the experiment on Staphylococcus aureus [14] and in the experiment with Aspergillus niger [15] was 0 mm in each case. Besides, the MIC result in the experiment with Staphylococcus aureus [2], with Escherichia coli [3], with Yamadazyma tenuis [7], with Mycobacterium [11] and in the experiment on Aspergillus niger [13] was “inactive” in each case.

For `CCCCOC(=O)CCSC1=C(N2CCC3(CC2)OCCO3)C(=O)c2ccccc2C1=O`, the “diameter of the inhibition zone (DIZ)” value stood at 0 mm in the experiment on Yamadazyma tenuis [1]; 0 mm with Escherichia coli [4]; 0 mm in the experiment with Staphylococcus aureus [5]; 0 mm in the experiment on Mycobacterium [6]; 0 mm in the experiment with Mycobacterium [8]; 9 mm with Aspergillus niger [9]. Besides, the “diameter of the inhibition zone (DIZ)” value with Yamadazyma tenuis [10] worked out at 0 mm; in the experiment with Escherichia coli [12] it was 0 mm; with Staphylococcus aureus [14] it was 0 mm; with Aspergillus niger [15], 7 mm. In addition, the MIC result in the experiment with Staphylococcus aureus [2], in the experiment on Escherichia coli [3] and with Yamadazyma tenuis [7] was “inactive” each time. For the same compound, the results for the MIC in the experiment on Mycobacterium [11] and against Aspergillus niger [13] were 125 µg/mL (≈ 272 µM) and 62.5 µg/mL (≈ 136 µM), respectively.

As to NYSTATIN, the inhibition zone (IZ) with Yamadazyma tenuis [10] came out at 19 mm.

For the compound `O=C1C(Sc2c(Cl)c(Cl)c(Cl)c(Cl)c2Cl)=C(N2CCCC2)C(=O)c2ccccc21`, the “diameter of the inhibition zone (DIZ)” value with Yamadazyma tenuis [1], in the experiment on Escherichia coli [4], in the experiment on Staphylococcus aureus [5], in the experiment on Mycobacterium [6], in the experiment on Mycobacterium [8] and with Aspergillus niger [9] was 0 mm in each case. The “diameter of the inhibition zone (DIZ)” value in the experiment with Yamadazyma tenuis [10], in the experiment with Escherichia coli [12], in the experiment with Staphylococcus aureus [14] and with Aspergillus niger [15] was 0 mm throughout. Moreover, the MIC entry in the experiment with Staphylococcus aureus [2], in the experiment on Escherichia coli [3], in the experiment with Yamadazyma tenuis [7], in the experiment with Mycobacterium [11] and in the experiment with Aspergillus niger [13] was “inactive” throughout.

Regarding `O=C1C(Cl)=C(N2CCN(CCO)CC2)C(=O)c2ccccc21`, the “diameter of the inhibition zone (DIZ)” value came to 0 mm in the experiment on Yamadazyma tenuis [1]; 6 mm with Escherichia coli [4]; 20.7 mm in the experiment with Staphylococcus aureus [5]; 28.7 mm with Mycobacterium [6]; 16 mm with Mycobacterium [8]; 0 mm with Aspergillus niger [9]. The “diameter of the inhibition zone (DIZ)” value in the experiment on Yamadazyma tenuis [10] was determined as 0 mm; with Escherichia coli [12], 8 mm; with Staphylococcus aureus [14] it was 11.4 mm; with Aspergillus niger [15] it was 0 mm. Further, the MIC turned out to be 62.5 µg/mL (≈ 195 µM) with Staphylococcus aureus [2]; 500 µg/mL (≈ 1560 µM) against Escherichia coli [3]; 125 µg/mL (≈ 390 µM) in the experiment with Yamadazyma tenuis [7]; 31.2 µg/mL (≈ 97.3 µM) with Mycobacterium [11]; 125 µg/mL (≈ 390 µM) in the experiment with Aspergillus niger [13].

As to `CC1CCC(C(C)(C)SC2=C(SC(C)(C)C3CCC(C)CC3=O)C(=O)c3ccccc3C2=O)C(=O)C1` (centres undefined), the “diameter of the inhibition zone (DIZ)” value with Yamadazyma tenuis [1] is reported as 7.4 mm; in the experiment with Escherichia coli [4] it was 0 mm; with Staphylococcus aureus [5], 0 mm; in the experiment with Mycobacterium [6] it was 0 mm; with Mycobacterium [8], 0 mm; in the experiment on Aspergillus niger [9], 6 mm. The “diameter of the inhibition zone (DIZ)” value with Yamadazyma tenuis [10], in the experiment with Escherichia coli [12], with Staphylococcus aureus [14] and in the experiment with Aspergillus niger [15] was 0 mm in each case. Also, the MIC result in the experiment with Staphylococcus aureus [2], in the experiment on Escherichia coli [3] and with Yamadazyma tenuis [7] was “inactive” each time. For the same compound, the minimum inhibitory concentration (MIC) in the experiment on Mycobacterium [11] and against Aspergillus niger [13] was 500 µg/mL (≈ 949 µM) in each case.

Consider `O=C1C(Sc2c(Cl)c(Cl)c(Cl)c(Cl)c2Cl)=C(N2CCCCC2)C(=O)c2ccccc21`, for which the “diameter of the inhibition zone (DIZ)” value in the experiment on Yamadazyma tenuis [1], with Escherichia coli [4], in the experiment on Staphylococcus aureus [5], in the experiment with Mycobacterium [6], in the experiment with Mycobacterium [8] and with Aspergillus niger [9] was 0 mm throughout. For the same compound, the “diameter of the inhibition zone (DIZ)” value with Yamadazyma tenuis [10], with Escherichia coli [12], with Staphylococcus aureus [14] and in the experiment on Aspergillus niger [15] was 0 mm throughout. In addition, the MIC entry with Staphylococcus aureus [2], in the experiment with Escherichia coli [3], in the experiment with Yamadazyma tenuis [7], in the experiment on Mycobacterium [11] and in the experiment with Aspergillus niger [13] was “inactive” throughout.

In the case of `CN[C@H](CC(C)C)C(=O)N[C@H]1C(=O)N[C@@H](CC(N)=O)C(=O)N[C@H]2C(=O)N[C@H]3C(=O)N[C@H](C(=O)N[C@H](C(=O)O)c4cc(O)cc(O)c4-c4cc3ccc4O)[C@H](O)c3ccc(c(Cl)c3)Oc3cc2cc(c3O[C@@H]2O[C@H](CO)[C@@H](O)[C@H](O)[C@H]2O[C@H]2C[C@](C)(N)[C@H](O)[C@H](C)O2)Oc2ccc(cc2Cl)[C@H]1O` [VANCOMYCIN], the “diameter of the inhibition zone (DIZ)” value in the experiment on Escherichia coli [4] is listed as 14 mm; in the experiment on Mycobacterium [8], 18 mm; with Staphylococcus aureus [14], 15 mm.

For `O=C1C(Sc2c(Cl)c(Cl)c(Cl)c(Cl)c2Cl)=C(N2CCSCC2)C(=O)c2ccccc21`, the “diameter of the inhibition zone (DIZ)” value in the experiment with Yamadazyma tenuis [1], in the experiment on Escherichia coli [4], with Staphylococcus aureus [5], in the experiment on Mycobacterium [6], in the experiment with Mycobacterium [8] and with Aspergillus niger [9] was 0 mm in each case. In addition, the “diameter of the inhibition zone (DIZ)” value in the experiment with Yamadazyma tenuis [10], in the experiment with Escherichia coli [12], in the experiment on Staphylococcus aureus [14] and with Aspergillus niger [15] was 0 mm in each case. The MIC result in the experiment with Staphylococcus aureus [2], with Escherichia coli [3], with Mycobacterium [11] and in the experiment on Aspergillus niger [13] was “inactive” in each case. Moreover, in the experiment with Yamadazyma tenuis [7], the MIC amounted to 125 µg/mL (≈ 232 µM).

As for `CCCCOC(=O)CCSC1=C(Sc2ccc(O)cc2)C(=O)c2ccccc2C1=O`, the “diameter of the inhibition zone (DIZ)” value in the experiment with Yamadazyma tenuis [1] is given as 0 mm; in the experiment with Escherichia coli [4], 0 mm; in the experiment with Staphylococcus aureus [5] it was 0 mm; in the experiment with Mycobacterium [6] it was 6 mm; in the experiment with Mycobacterium [8], 0 mm; with Aspergillus niger [9], 0 mm. The “diameter of the inhibition zone (DIZ)” value in the experiment on Yamadazyma tenuis [10], in the experiment on Escherichia coli [12], with Staphylococcus aureus [14] and in the experiment with Aspergillus niger [15] was 0 mm each time. For the same compound, the MIC entry with Staphylococcus aureus [2], in the experiment with Escherichia coli [3], in the experiment with Yamadazyma tenuis [7], in the experiment with Mycobacterium [11] and with Aspergillus niger [13] was “inactive” each time.
